Assay results: publication PMC8890653, “Cell-penetrating peptides containing the progesterone receptor polyproline domain inhibits EGF signaling and cell proliferation in lung cancer cells” (PLoS ONE, 2022)

System: PC9-ER cells
Assay: Cell viability (MTT) of Erlotinib-resistant cells
Conditions: Homo sapiens, PC-9/ER, 72 h, read-out: Inhibition of PC9-ER cell proliferation, Erlotinib alone

C#Cc1cccc(Nc2ncnc3cc(OCCOC)c(OCCOC)cc23)c1 [Erlotinib]
inhibition at 0.1 µM: 8%
